Our source for the TGI and GI50 values is PubChem BioAssay (NCI).

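A five-concentration, 48-hour dose response in 96-well plates underlies each endpoint, interpolated linearly between surrounding concentrations. GI50 marks 50% less growth. TGI is the concentration that stops growth completely.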 Where a SMILES comes first, the peptide text is derived from it.

Test systems include TK-10 renal; UACC-62 melanoma; SN12C renal; RXF 393 renal; PC-3 prostate; NCI-H460 lung; HOP-62 NSCLC; U251 CNS; 786-0 renal; HOP-92 NSCLC.
What all share (assay): DTP human tumour cell line panel, 48 h

Regarding `CC/C(=N\NC(=O)c1cccnc1)c1ccc2c(c1)OCCO2`, the TGI in the assay on TK-10 renal, in the assay with UACC-62 melanoma, with SN12C renal, with RXF 393 renal, with PC-3 prostate and in the assay with NCI-H460 lung was above 100 µM throughout. For the same molecule, the TGI with HOP-62 NSCLC, in the assay on U251 CNS and with 786-0 renal was above 100 µM each time.
Turning to `COc1c(CC=C(C)C)c(O)c(C(CC(C)C)c2c(O)c(C(C)=O)c(O)c3c2OC(C(C)(C)O)C3)c(O)c1C(C)=O` (configuration not stated), the TGI in the assay on UACC-62 melanoma is above 12.5 µM; in the assay on SN12C renal, above 12.5 µM; in the assay on RXF 393 renal, 8.56 µM; in the assay with HOP-92 NSCLC, 5.21 µM; with NCI-H460 lung, above 12.5 µM; with 786-0 renal, above 12.5 µM.
Turning to `CSC1=N/C(=C\c2ccc(C)cc2)C(=O)N1CN1CCOCC1`, the concentration for total growth inhibition (TGI) in the assay on TK-10 renal, with UACC-62 melanoma, with SN12C renal, in the assay with PC-3 prostate, with HOP-92 NSCLC and in the assay on HOP-62 NSCLC was above 100 µM throughout. For the same molecule, the total growth inhibition concentration (TGI) with U251 CNS and in the assay on 786-0 renal was above 100 µM throughout.
Regarding `CCN1CC2=C(N=c3s/c(=C\c4ccc(Cl)cc4)c(=O)n3C2c2ccc(Cl)cc2)/C(=C/c2ccc(Cl)cc2)C1` (configuration not stated), the concentration for total growth inhibition (TGI) with TK-10 renal is 62.5 µM; with UACC-62 melanoma, above 100 µM; in the assay on RXF 393 renal, 15.4 µM; in the assay with PC-3 prostate, above 100 µM; in the assay on NCI-H460 lung, above 100 µM; in the assay on HOP-62 NSCLC it was 90.4 µM. Further, the total growth inhibition concentration (TGI) was above 100 µM in the assay with U251 CNS and 55.2 µM with 786-0 renal.
For the molecule `CN(C1=NCCO1)c1cccc2ccccc12`, the TGI in the assay with TK-10 renal, in the assay on UACC-62 melanoma, in the assay on SN12C renal, in the assay with RXF 393 renal, in the assay on PC-3 prostate and in the assay with NCI-H460 lung was above 10 µM each time. Also, the total growth inhibition concentration (TGI) in the assay on HOP-62 NSCLC and in the assay with U251 CNS was above 10 µM in each case.
Consider `CCOP(=O)(OCC)C(NC(=O)OCC(Cl)(Cl)Cl)n1nnc(C(=O)OC)c1C(=O)OC` (configuration not stated), for which the TGI in the assay with TK-10 renal, with UACC-62 melanoma, in the assay with RXF 393 renal, in the assay on PC-3 prostate, with HOP-92 NSCLC and with NCI-H460 lung was above 100 µM throughout. Further, the total growth inhibition concentration (TGI) in the assay on HOP-62 NSCLC, in the assay on U251 CNS and in the assay on 786-0 renal was above 100 µM each time.
For the molecule `CC(=O)/C(C=Nc1c(C)n(C)n(-c2ccccc2)c1=O)=C(/C)O`, the total growth inhibition concentration (TGI) in the assay on TK-10 renal, in the assay with UACC-62 melanoma, in the assay on SN12C renal, in the assay on RXF 393 renal, in the assay with PC-3 prostate and in the assay on HOP-92 NSCLC was above 100 µM in each case. For the same molecule, the concentration for total growth inhibition (TGI) in the assay with U251 CNS and in the assay with 786-0 renal was above 100 µM in each case.
Take `O=C(NN=C1CCN(Cc2ccccc2)CC1)C(O)(c1ccccc1)c1ccccc1`: the TGI with TK-10 renal, with UACC-62 melanoma, with SN12C renal, in the assay on RXF 393 renal, with HOP-92 NSCLC and in the assay on HOP-62 NSCLC was above 100 µM in each case. Also, the TGI in the assay on U251 CNS and with 786-0 renal was above 100 µM in each case.
As for `CC1NC(=O)CNC(=O)CNC(=O)C(Cc2ccc(O)cc2)NC(=O)C(C(C)C)NC(=O)C(C)NC1=O` (configuration not stated) (cyclo(GGAAVY); configuration not given here), the TGI in the assay with UACC-62 melanoma, in the assay on SN12C renal, in the assay on RXF 393 renal, in the assay with HOP-92 NSCLC, with NCI-H460 lung and in the assay on HOP-62 NSCLC was above 100 µM in each case. This molecule displayed a concentration for total growth inhibition (TGI) in the assay with U251 CNS above 100 µM. For the same molecule, the GI50 in the assay on RXF 393 renal and with HOP-92 NSCLC was above 100 µM in each case.
With `CN(C)CCCNc1c(O)c2c(c(O)c1Cl)C(=O)C=CC2=O`, the TGI is above 10 µM in the assay with TK-10 renal; 3.18 µM in the assay on UACC-62 melanoma; 3.2 µM in the assay on SN12C renal; 6.83 µM in the assay on PC-3 prostate; above 10 µM in the assay with HOP-92 NSCLC; 3.81 µM with NCI-H460 lung. Also, the total growth inhibition concentration (TGI) with HOP-62 NSCLC turned out to be 7.87 µM; in the assay on U251 CNS, 3.46 µM; with 786-0 renal it was 3.25 µM.
Regarding `COc1ccc2c(c1)C(N)CC2=O` (configuration not stated), the concentration for total growth inhibition (TGI) with TK-10 renal was above 100 µM; in the assay with UACC-62 melanoma, above 100 µM; in the assay with SN12C renal it was above 100 µM; in the assay on RXF 393 renal, 36.3 µM; in the assay on PC-3 prostate, 34.8 µM; in the assay on HOP-92 NSCLC it was above 100 µM. The TGI in the assay with HOP-62 NSCLC, in the assay on U251 CNS and with 786-0 renal was above 100 µM throughout.
As to `CCc1ccc(-c2nnc(COc3ccc(-c4nc5ccc(C)cc5[nH]4)cc3OC)o2)cc1`, the GI50 with TK-10 renal was 2.72 µM; in the assay on UACC-62 melanoma it was 2.12 µM; in the assay on SN12C renal, 2.2 µM; with RXF 393 renal, 1.75 µM; with PC-3 prostate, 2.96 µM; in the assay on HOP-92 NSCLC, 2.07 µM. Also, the GI50 with NCI-H460 lung is 3.38 µM; in the assay with HOP-62 NSCLC it was 2.44 µM; in the assay on U251 CNS it was 2.32 µM. Further, the TGI is 5.61 µM in the assay with TK-10 renal; 5.09 µM in the assay on UACC-62 melanoma; 5.52 µM in the assay on SN12C renal; 3.29 µM in the assay on RXF 393 renal; above 100 µM in the assay on PC-3 prostate; 5.83 µM with HOP-92 NSCLC. For the same molecule, the TGI in the assay with NCI-H460 lung came out at 18.4 µM; in the assay with HOP-62 NSCLC, 6.46 µM; in the assay on U251 CNS it was 5.79 µM.
Take `Cc1[nH]c2ncn3nc(C(Cl)(Cl)Cl)nc3c2c1Cc1ccccc1`: the TGI in the assay on TK-10 renal, in the assay with UACC-62 melanoma, in the assay with SN12C renal, with RXF 393 renal, in the assay with PC-3 prostate and in the assay on NCI-H460 lung was above 100 µM in each case. Moreover, the TGI in the assay with HOP-62 NSCLC, in the assay on U251 CNS and with 786-0 renal was above 100 µM throughout.
Consider `CC(=O)ON(OC(C)=O)c1ccc(C)cc1`, for which the total growth inhibition concentration (TGI) in the assay on TK-10 renal, in the assay on UACC-62 melanoma, in the assay on RXF 393 renal, in the assay on PC-3 prostate, with HOP-92 NSCLC and in the assay with NCI-H460 lung was above 100 µM each time. The total growth inhibition concentration (TGI) with HOP-62 NSCLC, in the assay on U251 CNS and in the assay with 786-0 renal was above 100 µM in each case.
